How the values were obtained:
cortical neuron cells = experiment: Protective effect on iron-induced neuronal cell injury (LDH release); format: cell-based; conditions: FeSO4 50 μM; for IC50: LDH
Method in brief: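 Embryonic (day 17–18) cortical neurons cultured 7–9 days, serum lowered to 0.2%, pretreated 30 min with compound (DMSO ≤0.1%), then exposed to 50 μM FeSO4 for 24 h. LDH released to medium measured; protection expressed as LDH reduction versus vehicle control.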

[1] = tested on: Low density lipoprotein of human (human LDL); experiment: Inhibitory effect against lipid peroxidation induced by copper (LDL oxidation, MDA); format: biochemical; conditions: CuSO4 10 μM, 37° C. 18 hours
Procedure: Low density lipoprotein of human (human LDL, sigma) was dissolved in water to be final concentration of 1 mg/ml. To remove EDTA (ethylenediamine tetraacetate), the aqueous solution was dialyzed in phosphate buffer at 4° C. for 18 hours. At this dialysis, phosphate buffer was changed three times. Phosphate buffer was added to LDL (100 μg LDL protein/ml) which EDTA was removed from the aqueous solution, additionally thereto CuSO4 10 μM as oxidant was added. […] Group to which CUSO4 was not added was used as blank group. Group to which CUSO4 and vehicle were added in place of test compounds was used as control group. The mixture was incubated at 37° C. for 18 hours. EDTA […] was added to the mixture to terminate the oxidation reaction.
As shown in example 4, Cu^2+ facilitates the oxidation reaction to produce malondialdehyde (MDA), lipid peroxidation product. The MDA quantification is achieved by reacting samples with 2-thiobarbituric acid (TBA) and measuring the absorbance at 530 nm. Also, 1,1,3,3-tetramethoxypropane purchased from sigma was used as standard materials. Inhibitory effect against lipid peroxidation of the test compounds was measured by MDA (nmol) to protein (mg). Decrease of MDA to that of control group was calculated.

[2] = tested on: isolated ischemic rat heart; experiment: Cardioprotective effect in ischemic heart models of rats (Langendorff); conditions: 10 μM
Method in brief: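 Langendorff-perfused male rat hearts (Krebs-Henseleit, 85 mmHg, 37 °C) pretreated 10 min with compound or vehicle (0.04% DMSO), then 30 min global ischemia and 30 min reperfusion. Read-outs: LVDP, HR, CF, rate-pressure product, time to contracture (first 5 mmHg EDP rise), LDH release.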

COC(OC)[C@@]1(C)Oc2ccc(N)cc2[C@H](N(Cc2nnn(C)n2)c2ccc(Cl)cc2)[C@H]1O [Example 11, (2S,3R,4S)-6-amino-4-[N-(4-chlorophenyl)-N-(2-methyl-2H-tetrazol-5-ylmethyl)amino]-3-hydroxy-2-methyl-2-dimethoxymethyl-3,4-dihydro-2H-1-benzopyran]
protective effect on neuron cell: Inhibition (%, 30 μM compound addition) (cortical neuron cells; 30 μM compound, 24 hours, LDH reduction vs control): 93%
IC50 (cortical neuron cells; Cortical neurone, 24 h): < 2 µM
IC50 (cortical neuron cells; 24 hours): 2 µM
Inhibitory effect(%) against lipid peroxidation induced by copper ([1]; Addition 10^−5 M): 63.9%
Inhibitory effect(%) against lipid peroxidation induced by copper ([1]; Addition 10^−6 M): 54.9%
Inhibitory effect(%) against lipid peroxidation induced by copper ([1]; Addition 10^−7 M): 27.3%
EDP (mmHg) ([2]; after 30 min global ischemia and reperfusion): 47.6 mmHg
LDH (u/g) ([2]; reperfusion LDH release): 16.5 u/g
LVDP X HR (%) ([2]; reperfusion, % of pre-treatment DP): 24.8%
TTC ([2]; time to contracture during global ischemia): 19.9 min

— US7414068B2, “Benzopyran derivatives substituted with secondary amines including tetrazole, method for the preparation thereof and pharmaceutical compositions containing them” (Dongbu Hannong Chemical Co., Ltd., priority 2002, dated 2008)
